Results published in paper PMC9108036 (Biomedicine & Pharmacotherapy, 2022).
Like-named read-outs stand apart in the source and are kept apart here.

What was measured:
[1] = in vitro; format: cell-based; details: human
[2] = system: Omicron SARS-CoV-2 lentiviral pseudovirus; format: cell-based
[3] = Omicron pseudovirus, CaCo2 cells

Row | SMILES | viability at 10 µM [1] [%] | inhibition of Omicron pseudovirus entry (in words) [2, 3] | inhibition of Omicron pseudovirus entry (in words) [2]
1 | CCCCC[C@H](O)/C=C/[C@H]1[C@H](O)CC(=O)[C@@H]1CCCCCCC(=O)O [Alprostadil] | 100 ± 2.9 |  | 
2 | CN(C)CCCN1c2ccccc2Sc2ccc(Cl)cc21 [Chlorpromazine] | 88.6 ± 4.3 | enhanced inhibitory effects | 
3 | Nc1nc(Cl)nc2c1ncn2[C@H]1C[C@H](O)[C@@H](CO)O1 [Cladribine] | 108 ± 2.7 |  | 
4 | CN(C)CCCN1c2ccccc2CCc2ccc(Cl)cc21 [Clomipramine] |  |  | enhanced inhibitory effects
5 | COC(=O)C1=C(C)NC(C)=C(C(=O)OCCCN2CCC(c3ccccc3)(c3ccccc3)CC2)[C@@H]1c1cccc([N+](=O)[O-])c1 [Dexniguldipine] |  |  | strong inhibition
6 | CC(=O)O[C@@]12CO[C@@H]1C[C@H](O)[C@@]1(C)C(=O)[C@H](O)C3=C(C)[C@@H](OC(=O)[C@H](O)[C@@H](NC(=O)OC(C)(C)C)c4ccccc4)C[C@@](O)([C@@H](OC(=O)c4ccccc4)[C@H]21)C3(C)C [Docetaxel] | 80.8 ± 3 |  | 
7 | Clc1ccc(COC(Cn2ccnc2)c2ccc(Cl)cc2Cl)cc1 (centres unmarked) [Econazole] | 88.2 ± 1.8 |  | 
8 | O=c1[nH]cc(F)c(=O)[nH]1 [Fluorouracil] | 97 ± 1.7 |  | 
9 | CSc1ccc2c(c1)N(CCC1CCCCN1C)c1ccccc1S2 (centres unmarked) [Thioridazine] |  |  | enhanced inhibitory effects
10 | CN1CCN(CCCN2c3ccccc3Sc3ccc(C(F)(F)F)cc32)CC1 [Trifluoperazine] |  | enhanced inhibitory effects | 
